Experiments:
Format in all cases: ADME, organism-based
[1] = system: Homo sapiens; experiment: Fast disposition half life in healthy subject (7 subjects) at 50 mg, iv by three compartment open model; details: in vivo
[2] = Plasma concentration in healthy subject (7 subjects) at 50 mg, po administered as single dose measured after 6.5 hrs by gas chromatography; details: human
[3] = Plasma concentration in healthy subject (7 subjects) at 50 mg, po administered as single dose measured after 1.5 hrs by gas chromatography; details: human
[4] = Plasma concentration in healthy subject (7 subjects) at 50 mg, po administered as single dose measured after 4.5 hrs by gas chromatography; details: human
[5] = Plasma concentration in healthy subject (7 subjects) at 50 mg, po administered as single dose measured after 2 hrs by gas chromatography; details: human
[6] = Plasma concentration in healthy subject (7 subjects) at 50 mg, po administered as single dose measured after 2.5 hrs by gas chromatography; details: human
[7] = Oral bioavailability in healthy subject (7 subjects) at 50 mg administered as single dose; details: human, in vivo
[8] = Cmax in healthy subject (7 subjects) at 50 mg, po administered as single dose; design: dose 50 mg, route oral; details: human, in vivo
[9] = Slow disposition half life in healthy subject (7 subjects) at 50 mg, iv by three compartment open model; details: human, in vivo, read-out: alphat1/2 (converted)
[10] = Plasma concentration in healthy subject (7 subjects) at 50 mg, po administered as single dose measured after 5.5 hrs by gas chromatography; details: human
[11] = Plasma concentration in healthy subject (7 subjects) at 50 mg, po administered as single dose measured after 3 hrs by gas chromatography; details: human
[12] = Terminal half life in healthy subject (7 subjects) at 50 mg, po administered as single dose; details: human, in vivo, read-out: beta t1/2 (converted)
[13] = Elimination rate constant in healthy subject (7 subjects) at 50 mg, po administered as single dose; details: human, in vivo
[14] = Plasma concentration in healthy subject (7 subjects) at 50 mg, po administered as single dose measured after 9 hrs by gas chromatography; details: human
[15] = Total volume of distribution in healthy subject (7 subjects) at 50 mg, iv by three compartment open model; details: human, in vivo
[16] = Cmax in healthy subject (7 subjects) at 50 mg, iv measured after 5 mins; design: dose 50 mg, route intravenous; details: human, in vivo
[17] = Plasma concentration in healthy subject (7 subjects) at 50 mg, po administered as single dose measured after 4 hrs by gas chromatography; details: human
[18] = Plasma concentration in healthy subject (7 subjects) at 50 mg, po administered as single dose measured after 8 hrs by gas chromatography; details: human
[19] = system: Homo sapiens; experiment: First order inter-compartment transfer rate constant from central to deep tissue compartment in healthy subject (7 subjects) at 50 mg, iv by three compartment open model; details: in vivo
[20] = AUC (0 to infinity) in healthy subject (7 subjects) at 50 mg, po administered as single dose; design: dose 50 mg, route oral, time infinity; details: human, in vivo
[21] = Plasma concentration in healthy subject (7 subjects) at 50 mg, po administered as single dose measured after 3.5 hrs by gas chromatography; details: human
[22] = Plasma concentration in healthy subject (7 subjects) at 50 mg, po administered as single dose measured after 6 hrs by gas chromatography; details: human
[23] = system: Homo sapiens; experiment: Tlag in healthy subject (7 subjects) at 50 mg, po administered as single dose; details: in vivo
[24] = Terminal half life in healthy subject (7 subjects) at 50 mg, iv by three compartment open model; details: human, in vivo, read-out: beta t1/2 (converted)
[25] = Plasma concentration in healthy subject (7 subjects) at 50 mg, po administered as single dose measured after 1 hr by gas chromatography; details: human
[26] = system: Homo sapiens; experiment: First order inter-compartment transfer rate constant from central to tissue compartment in healthy subject (7 subjects) at 50 mg, iv by three compartment open model; details: in vivo
[27] = Elimination rate constant in healthy subject (7 subjects) at 50 mg, iv by three compartment open model; details: human, in vivo
[28] = system: Homo sapiens; experiment: First order inter-compartment transfer rate constant from deep tissue to central compartment in healthy subject (7 subjects) at 50 mg, iv by three compartment open model; details: in vivo
[29] = system: Homo sapiens; experiment: First order inter-compartment transfer rate constant from tissue to central compartment in healthy subject (7 subjects) at 50 mg, iv by three compartment open model; details: in vivo
[30] = Plasma concentration in healthy subject (7 subjects) at 50 mg, po administered as single dose measured after 5 hrs by gas chromatography; details: human
[31] = Plasma concentration in healthy subject (7 subjects) at 50 mg, po administered as single dose measured after 7 hrs by gas chromatography; details: human
[32] = AUC (0 to infinity) in healthy subject (7 subjects) at 50 mg, iv by three compartment open model; design: dose 50 mg, route intravenous, time infinity; details: human, in vivo
[33] = Tmax in healthy subject (7 subjects) at 50 mg, po administered as single dose; details: human, in vivo
[34] = Plasma clearance in healthy subject (7 subjects) at 50 mg, iv by three compartment open model; details: human

t1/2 [1]: 3 min | concentration at 6.5 h [2]: 25 ng/mL | concentration at 1.5 h [3]: 100 ng/mL | concentration at 4.5 h [4]: 215 ng/mL | concentration at 2 h [5]: 860 ng/mL | concentration at 2.5 h [6]: 710 ng/mL | bioavailability [7]: 54% | Cmax [8]: 2000 ng/mL | half-life [9]: 0.26 h | concentration at 5.5 h [10]: 54 ng/mL | concentration at 3 h [11]: 690 ng/mL | half-life [12]: 1.8 h | k el [13]: 0.000183 s⁻¹ | concentration at 9 h [14]: 3 ng/mL | Vd [15]: 0.172 L/kg | Cmax [16]: 7800 ng/mL | concentration at 4 h [17]: 110 ng/mL | concentration at 8 h [18]: 11 ng/mL | K [19]: 2.6 h⁻¹ | AUC(0-inf) [20]: 1670 ng·h/mL | concentration at 3.5 h [21]: 240 ng/mL | concentration at 6 h [22]: 35 ng/mL | Tlag [23]: 1.9 h | half-life [24]: 1.1 h | concentration at 1 h [25]: 200 ng/mL | K [26]: 5.5 h⁻¹ | k el [27]: 0.00236 s⁻¹ | K [28]: 0.8 h⁻¹ | K [29]: 5.2 h⁻¹ | concentration at 5 h [30]: 95 ng/mL | concentration at 7 h [31]: 15 ng/mL | AUC(0-inf) [32]: 3290 ng·h/mL | Tmax [33]: 2.5 h | clearance [34]: 263 mL/min
SMILES: O=C([O-])Cc1ccccc1Nc1c(Cl)cccc1Cl.[Na+] [DICLOFENAC SODIUM]

From ChEMBL document CHEMBL3785039, “The pharmacokinetics of diclofenac sodium following intravenous and oral administration” (Eur J Clin Pharmacol, 1979)
